Test results as given in ChEMBL document CHEMBL4680133, “Novel nitroimidazole derivatives evaluated for their trypanocidal, cytotoxic, and genotoxic activities” (Eur J Med Chem, 2020).

Key:
[1] = Mutagenicity in Salmonella typhimurium TA100 assessed as revertant/ug measured after 20 mins in presence of S9 fraction by microsome assay; assay type: toxicity, subcellular; details: salmonella enterica subsp. enterica serovar typhimurium, s9, 20 min
[2] = Mutagenicity in Salmonella typhimurium TA100 assessed as revertant/ug measured after 20 mins in absence of S9 fraction by microsome assay; assay type: toxicity; details: salmonella enterica subsp. enterica serovar typhimurium, microsomes
[3] = Mutagenicity in Salmonella typhimurium TA97 assessed as revertant/ug measured after 20 mins in presence of S9 fraction by microsome assay; assay type: toxicity, subcellular; details: salmonella enterica subsp. enterica serovar typhimurium, s9, 20 min
[4] = Mutagenicity in Salmonella typhimurium TA97 assessed as revertant/ug measured after 20 mins in absence of S9 fraction by microsome assay; assay type: toxicity; details: salmonella enterica subsp. enterica serovar typhimurium, microsomes
Trypanosoma cruzi = assay: Antitrypanosomal activity against bloodstream form of Trypanosoma cruzi Y trypomastigotes infected in African green monkey Vero cells assessed as increase in parasite lysis measured after 24 hrs by Neubauer chamber method; assay type: functional, organism-based

SMILES | IC50 (Trypanosoma cruzi) [µM] | other results
Cn1cnc([N+](=O)[O-])c1-n1cccn1 | – | Activity [1]: 35.5 revertants/µg; Activity [2]: 65.5 revertants/µg; Activity [3]: Non-Toxic; Activity [4]: 11.5 revertants/µg
Cn1cnc([N+](=O)[O-])c1-n1cc(-c2ccccc2)nn1 | 25.2 | –
CCCCCc1cn(-c2c([N+](=O)[O-])ncn2C)nn1 | 54.3 | –
Cn1cnc([N+](=O)[O-])c1-n1ccnc1 | > 2000 | –
Cn1cnc([N+](=O)[O-])c1-n1cc(C2=CCCCC2)nn1 | 41.7 | –
